Values after ≈ are worked out from the molar mass of the structure shown. Active and inactive are the calls of the source. The rule behind the calls is not given here.
Legend:
[1] = tested on: Staphylococcus aureus; experiment: Bactericidal activity against […] Staphylococcus aureus ATCC33591 assessed as log reduction in bacterial count at 2 times MIC measured within 8 to 12 hrs by time-kill assay; format: functional; settings: time 8-12 hrs
[2] = tested on: HepG2; experiment: Cytotoxicity against human HepG2 cells assessed as survival rate at 800 uM measured after 48 hrs by CCK-8 method relative to control; format: functional; settings: read-out: Survival
[3] = Acute toxicity in female BALB/c mouse assessed as effect on heart at 800 mg/kg, po measured after 14 days by H and E staining based analysis; format: organism-based; settings: in vivo, 336 h, time 14 day
[4] = Acute toxicity in female BALB/c mouse assessed as effect on spleen at 800 mg/kg, po measured after 14 days by H and E staining based analysis; format: organism-based; settings: in vivo, 336 h, time 14 day
[5] = tested on: Cell membrane; experiment: Induction of cell membrane permeability in methicillin-resistant Staphylococcus aureus ATCC33591 assessed as increase in fluorescence measured after 30 mins by 7-AAD staining based analysis; format: cell membranes
[6] = Hemolytic activity in sheep erythrocytes assessed as hemolysis at 64 ug/ml incubated for 1 hr by microplate reader based analysis relative to control; format: toxicity, cell-based, Ovis aries, Erythrocyte; settings: at 64 µg/mL, read-out: Activity
[7] = tested on: Staphylococcus aureus; experiment: Antimicrobial activity against wild type Staphylococcus aureus RN4220 measured after 24 hrs by CLSI protocol based microdilution method; format: functional
[8] = Metabolic stability in mouse liver microsomes assessed as half life at 1 uM measured upto 120 mins in presence of NADPH by LC-MS analysis; format: ADME, Microsome
[9] = Inhibition of N-terminal his 6 tagged Escherichia coli Fabi (1 to 789 residues) expressed in Escherichia coli BL21 incubated for 30 mins in presence of NADH by fluorescence based microplate reader analysis
[10] = tested on: Staphylococcus aureus; experiment: Antimicrobial activity against Staphylococcus aureus RN4220 harbouring pCM-sfgfp::fabi (promoter fabi) measured after 24 hrs by CLSI protocol based microdilution method; format: functional
[11] = Acute toxicity in female BALB/c mouse assessed as effect on kidney at 800 mg/kg, po measured after 14 days by H and E staining based analysis; format: organism-based; settings: in vivo, 336 h, time 14 day
[12] = tested on: Staphylococcus aureus; experiment: Antimicrobial activity against Staphylococcus aureus measured after 24 hrs by CLSI protocol based microdilution method; format: functional
[13] = target: T1, Enoyl-[acyl-carrier-protein] reductase [NADPH] FabI (Staphylococcus aureus, UniProt Q6GI75); experiment: Inhibition of N-terminal his 6 tagged Staphylococcus aureus Fabi (1 to […] residues) expressed in Escherichia coli BL21 incubated for 30 mins in presence of NADPH by fluorescence based microplate reader analysis
T1 sequence (Q6GI75 whole entry): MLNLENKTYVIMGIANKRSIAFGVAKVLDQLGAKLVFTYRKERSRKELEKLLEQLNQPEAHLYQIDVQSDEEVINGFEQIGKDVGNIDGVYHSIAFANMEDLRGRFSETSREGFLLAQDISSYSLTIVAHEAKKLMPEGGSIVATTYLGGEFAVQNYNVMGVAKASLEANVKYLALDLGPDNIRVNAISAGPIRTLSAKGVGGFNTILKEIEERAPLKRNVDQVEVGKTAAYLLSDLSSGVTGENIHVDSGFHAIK

[14] = Acute toxicity in female BALB/c mouse assessed as effect on CREA level in serum at 800 mg/kg, po measured after 14 days; format: organism-based; settings: in vivo, 336 h, time 14 day
[15] = tested on: Staphylococcus aureus; experiment: Bactericidal activity against […] Staphylococcus aureus ATCC33591 assessed as reduction in bacterial count at 8 times MIC measured within 8 to 12 hrs by time-kill assay; format: functional, organism-based; settings: time 8-12 hrs
[16] = tested on: Cell membrane; experiment: Induction of cell membrane permeability in methicillin-resistant Staphylococcus aureus ATCC33591 assessed as fold increase in fluorescence intensity at 0.5 times MIC measured after 30 mins by Annexin V-FITC staining based analysis; format: cell membranes
[17] = tested on: Cell membrane; experiment: Induction of cell membrane damage in methicillin-resistant Staphylococcus aureus ATCC33591 assessed as outflow of cytoplasmic content at 1 times MIC measured after 30 mins by TEM analysis; format: cell membranes
[18] = Tmax in female Sprague-Dawley rat at 20 mg/kg, po measured upto 24 hrs by LC-MS analysis; format: ADME, organism-based; settings: in vivo
[19] = tested on: Acinetobacter baumannii; experiment: Antimicrobial activity against Acinetobacter baumannii ATCC19606 measured after 24 hrs by CLSI protocol based microdilution method; format: functional
[20] = Acute toxicity in female BALB/c mouse assessed as effect on UREA level in serum at 800 mg/kg, po measured after 14 days; format: organism-based; settings: in vivo, 336 h, time 14 day
[21] = tested on: Enterococcus faecalis; experiment: Antimicrobial activity against Enterococcus faecalis ATCC29212 measured after 24 hrs by CLSI protocol based microdilution method; format: functional
[22] = Hemolytic activity in sheep erythrocytes assessed as hemolysis incubated for 1 hr by microplate reader based analysis; format: toxicity, cell-based, Ovis aries, Erythrocyte
[23] = Oral bioavailability in female Sprague-Dawley rat at 20 mg/kg measured upto 24 hrs by LC-MS analysis; format: ADME, organism-based; settings: in vivo
[24] = Half life in female Sprague-Dawley rat at 20 mg/kg, po measured upto 24 hrs by LC-MS analysis; format: ADME, organism-based; settings: in vivo
[25] = Acute toxicity in female BALB/c mouse assessed as animal death at 800 mg/kg, po measured after 14 days; format: organism-based; settings: in vivo, 336 h, time 14 day
[26] = tested on: Cell membrane; experiment: Induction of cell membrane permeability in methicillin-resistant Staphylococcus aureus ATCC33591 assessed as fold increase in fluorescence intensity at 0.25 times MIC measured after 30 mins by Annexin V-FITC staining based analysis; format: cell membranes
[27] = tested on: Enterococcus faecium; experiment: Antimicrobial activity against Enterococcus faecium ATCC19434 measured after 24 hrs by CLSI protocol based microdilution method; format: functional
[28] = Acute toxicity in female BALB/c mouse assessed as effect on liver at 800 mg/kg, po measured after 14 days by H and E staining based analysis; format: organism-based; settings: in vivo, 336 h, time 14 day
[29] = tested on: Cell membrane; experiment: Induction of cell membrane damage in methicillin-resistant Staphylococcus aureus ATCC33591 assessed as broken cell surface at 1 times MIC measured after 30 mins by TEM analysis; format: cell membranes
[30] = tested on: Cell membrane; experiment: Induction of cell membrane permeability in methicillin-resistant Staphylococcus aureus ATCC33591 assessed as fold increase in fluorescence intensity at 0.5 times MIC measured after 30 mins by 7-AAD staining based analysis; format: cell membranes
[31] = Cytotoxicity against HEK293 cells assessed as survival rate at 400 uM measured after 48 hrs by CCK-8 method relative to control; format: toxicity, cell-based; settings: human, read-out: Survival
[32] = Selectivity index, ratio of HC50 for sheep erythrocytes to MIC for Staphylococcus aureus; format: toxicity; settings: read-out: Selectivity Index
[33] = Inhibition of N-terminal his 6 tagged Acinetobacter baumannii Fabi (1 to 804 residues) expressed in Escherichia coli BL21 incubated for 30 mins in presence of NADH by fluorescence based microplate reader analysis
[34] = Clearance in female Sprague-Dawley rat at 5 mg/kg, iv measured upto 24 hrs by LC-MS analysis; format: ADME, organism-based; settings: in vivo
[35] = Acute toxicity in female BALB/c mouse assessed as effect on TP level in serum at 800 mg/kg, po measured after 14 days; format: organism-based; settings: in vivo, 336 h, time 14 day
[36] = tested on: Pseudomonas aeruginosa; experiment: Antimicrobial activity against Pseudomonas aeruginosa PAO1 measured after 24 hrs by CLSI protocol based microdilution method; format: functional

Row | Structure (SMILES) | log(activity) [1] | viability at 800 µM [2] [%] | Activity [3] | Activity [4] | Activity [5] | hemolysis at 1 h, 64 ug/ml [6] [%] | MIC [7] [µg/mL] | half-life at 1 µM [8] [min] | IC50 [9] [nM] | MIC [10] [µg/mL] | Activity [11] | MIC [12] [µg/mL] | IC50 [13] [nM] | Activity [14] | Activity [15] | fold change (FC) [16] | Activity [17] | Tmax [18] [min] | MIC [19] [µg/mL] | Activity [20] | also measured
1 | Cc1c(Br)cccc1N1CC(c2nc3ccccc3n2C)CC1=O (configuration not stated) | 3.2 | > 75 | Non-Toxic | Non-Toxic | Active | 3.1 | 2 (≈ 5.2 µM) | 27.7 | 35.9 | 32 (≈ 83.3 µM) | Non-Toxic | 1 (≈ 2.6 µM) | 174 | Non-Toxic | Below limit of detection | 2.1 | Active | 60 | > 32 | Non-Toxic | MIC [21]: > 32 µg/mL; HC50 at 1 h [22]: > 256 µg/mL; bioavailability [23]: 86.1%; t1/2 [24]: 522 min; Activity [25]: Non-Toxic; fold change (FC) [26]: 1.3; MIC [27]: > 32 µg/mL; Activity [28]: Non-Toxic; Activity [29]: Active; fold change (FC) [30]: 1.6; viability at 48 h, 400 µM [31]: > 70%; selectivity ratio [32]: > 128; IC50 [33]: 266 nM; clearance [34]: 26.7 mL/min/kg; Activity [35]: Non-Toxic; MIC [36]: > 32 µg/mL
2 | COc1c(Br)cccc1N1CC(c2nc3ccccc3n2C)CC1=O (configuration not stated) | 2.3 | > 65 | Non-Toxic | Non-Toxic | Active | 1.9 | 2 (≈ 5 µM) | 13.2 | 35.9 | 32 (≈ 79.9 µM) | Non-Toxic | 1 (≈ 2.5 µM) | 199 | Non-Toxic | Below limit of detection | 1.9 | Active | 30 | > 32 | Non-Toxic | MIC [21]: > 32 µg/mL; HC50 at 1 h [22]: > 256 µg/mL; bioavailability [23]: 34.5%; t1/2 [24]: 558 min; Activity [25]: Non-Toxic; fold change (FC) [26]: 1.4; MIC [27]: > 32 µg/mL; Activity [28]: Non-Toxic; Activity [29]: Active; fold change (FC) [30]: 1.5; viability at 48 h, 400 µM [31]: > 70%; selectivity ratio [32]: > 128; IC50 [33]: 266 nM; clearance [34]: 36.7 mL/min/kg; Activity [35]: Non-Toxic; MIC [36]: > 32 µg/mL
